The results in this text go back to ChEMBL document CHEMBL3045257, “Pyrenocines J-M: four new pyrenocines from the endophytic fungus, Phomopsis sp” (2012).

One assay concerns Microbotryum violaceum. Description: Antifungal activity against Microbotryum violaceum by agar diffusion test. It counts as functional.
The next assay deals with Priestia megaterium. Nature of the assay: Antimicrobial activity against Bacillus megaterium by agar diffusion test. The assay is classed as functional. On the technique in general: A growth-free zone around the sample is the usual read-out of agar diffusion tests.
The next assay concerns Escherichia coli. Description: Antimicrobial activity against Escherichia coli by agar diffusion test. The assay is classed as functional.
The subject of a further assay is [Chlorella] fusca. Nature of the assay: Antialgal activity against 'Chlorella' fusca by agar diffusion test. The assay is classed as functional, Scenedesmus fuscus.
The test system of another assay is Zymoseptoria tritici. Nature of the assay: Antifungal activity against Zymoseptoria tritici by agar diffusion test. It counts as functional.
Another assay has as its system Botrytis cinerea. Nature of the assay: Antifungal activity against Botryotinia fuckeliana by agar diffusion test. It counts as functional.
The next assay has as its system Pyricularia oryzae. Nature of the assay: Antifungal activity against Magnaporthe oryzae by agar diffusion test. It counts as functional.
The next assay relates to Phytophthora infestans. Nature of the assay: Antifungal activity against Phytophthora infestans by agar diffusion test. The assay is classed as functional.

In the case of `C[C@@H]1C[C@@H]([C@H](O)CC2CC(=O)NC(=O)C2)C(=O)[C@@H](C)C1` [CYCLOHEXIMIDE], the “inhibition zone (IZ)” value in the assay with Microbotryum violaceum came to 50 mm; with Priestia megaterium it was 0 mm; in the assay with Escherichia coli, 0 mm; in assay [Chlorella] fusca it was 35 mm.
`CC1(C)S[C@@H]2[C@H](NC(=O)Cc3ccccc3)C(=O)N2[C@H]1C(=O)O` [PENICILLIN G]: the “inhibition zone (IZ)” value is 0 mm in the assay on Microbotryum violaceum, 18 mm in the assay with Priestia megaterium, 14 mm with Escherichia coli and 0 mm in assay [Chlorella] fusca.
For the compound `COc1cc(=O)oc2c1CO[C@@H](CC(C)=O)C2` [PYRENOCINE K], the “inhibition zone (IZ)” value in the assay with Zymoseptoria tritici was 6 mm; with Microbotryum violaceum it was 5 mm; in the assay with Priestia megaterium it was 8 mm; in the assay on Botrytis cinerea it was 0 mm; with Escherichia coli it was 6 mm; in the assay on Pyricularia oryzae, 0 mm. In addition, the entries for the “inhibition zone (IZ)” value (in assay [Chlorella] fusca; in the assay with Phytophthora infestans) were 6 mm and 0 mm, respectively.
On to `CCC[C@@H](Cc1oc(=O)cc(OC)c1CO)OC(C)=O` [PYRENOCINE L], for which the “inhibition zone (IZ)” value with Zymoseptoria tritici is 0 mm; with Microbotryum violaceum it was 0 mm; in the assay with Priestia megaterium it was 9 mm; in the assay on Botrytis cinerea, 0 mm; in the assay with Escherichia coli, 10 mm; with Pyricularia oryzae, 0 mm. Moreover, the entries for the “inhibition zone (IZ)” value (in assay [Chlorella] fusca; with Phytophthora infestans) were 10 mm and 0 mm, respectively.
`CCCCCc1oc(=O)cc(OC)c1CO` [PYRENOCINE M]: the “inhibition zone (IZ)” value stood at 6 mm in the assay with Zymoseptoria tritici; 5 mm in the assay on Microbotryum violaceum; 9 mm in the assay with Priestia megaterium; 0 mm in the assay with Botrytis cinerea; 5 mm in the assay with Escherichia coli; 0 mm in the assay on Pyricularia oryzae. Further, the “inhibition zone (IZ)” value in assay [Chlorella] fusca is listed as 5 mm; in the assay with Phytophthora infestans, 0 mm.
Regarding `CN(C)[C@@H]1C(O)=C(C(N)=O)C(=O)[C@@]2(O)C(O)=C3C(=O)c4c(O)cccc4[C@@](C)(O)[C@H]3C[C@@H]12` [TETRACYCLINE], the “inhibition zone (IZ)” value is recorded as 0 mm in the assay on Microbotryum violaceum, 18 mm in the assay with Priestia megaterium, 18 mm in the assay on Escherichia coli and 10 mm in assay [Chlorella] fusca.
Regarding NYSTATIN, the inhibition zone (IZ) in the assay on Microbotryum violaceum was determined as 20 mm; in the assay on Priestia megaterium it was 0 mm; in the assay on Escherichia coli, 0 mm; in assay [Chlorella] fusca (Scenedesmus fuscus), 0 mm.
